From patent publication US20050260715A1, “Efficient methods for producing antimicrobial cationic peptides in host cells” (priority 1998, published 2005)
Like-named read-outs stand apart in the source and are kept apart here. Square brackets hold non-standard residues; d marks the D form. Ends that are not written are not given here. Peptide text beside a SMILES is read from it. * marks the point of attachment. hSer(lactone) = O=C1OCC[C@@H]1N*; hSer = N[C@@H](CCO)C(=O)O

Key:
K. pneumoniae KP1 = system: K. pneumoniae KP1
Protocol: (§1) In the present case, the antimicrobial activities of MBI-11B7CN, MBI-11B7HSL (homoserine lactone form) and MBI-11B7HS (homoserine form) were tested against various gram-negative and gram-positive strains, including antibiotic resistant strains. The assay was performed as described in “Methods for Dilution Antimicrobial Susceptibility Tests for Bacteria That Grow Aerobically-Fourth Edition; Approved Standard” NCCLS document M7-A4 (ISBN 1-56238-309-4) Vol. 17, No. 2 (1977).
(§2) The antimicrobial activities of the chemically synthesized MBI-11B7CN peptide and recombinant DNA synthesized MBI-11B7HSL (homoserine lactone form) and MBI-11B7HS (homoserine form) peptides were tested against various gram-negative and positive strains of bacteria, including antibiotic resistant strains. The Agarose Dilution Assay was performed as described in “Methods for Dilution Antimicrobial Susceptibility Tests for Bacteria That Grow Aerobically-Fourth Edition; Approved Standard” NCCLS document M7-A4 (ISBN 1-56238-309-4) Vol. 17, No 2 (1977).
(§3) The agarose dilution assay measures antimicrobial activity of peptides and peptide analogues, which is expressed as the minimum inhibitory concentration (MIC) of the peptides.
(§4) In order to mimic in vivo conditions, calcium and magnesium supplemented Mueller Hinton broth is used in combination with a low EEO agarose as the bacterial growth medium. Agarose, rather than agar, is used as the charged groups in agar prevent peptide diffusion through the media. The medium is autoclaved and then cooled to 50° C.-55° C. in a water bath before aseptic addition of anti-microbial solutions. The same volume of different concentrations of peptide solution are added to the cooled molten agarose, which is then poured to a depth of 3-4 mm.
(§5) The bacterial inoculum is adjusted to a 0.5 McFarland turbidity standard (PML Microbiological) and then diluted 1:10 before application on to the agarose plate. The final inoculum applied to the agarose is approximately 10^4 CFU in a 5-8 mm diameter spot. The agarose plates are incubated at 35° C.-37° C. for 16 to 20 hours.

P. aeruginosa PA4 = system: P. aeruginosa PA4
Protocol: as §1, §2, §3, §4, §5

S. maltophilia SMA2 = system: S. maltophilia SMA2
Protocol: as §1, §2, §3, §4, §5

S. aureus SA14 = system: S. aureus SA14
Protocol: as §1, §2, §3, §4, §5

S. marcescens SMS3 = system: S. marcescens SMS3
Protocol: as §1, §2, §3, §4, §5

S. aureus SA93 = system: S. aureus SA93
Protocol: as §1, §2, §3, §4, §5

E. coli ECO5 = system: E. coli ECO5
Protocol: as §1, §2, §3, §4, §5

S. epidermidis SE10 = system: S. epidermidis SE10
Protocol: as §1, §2, §3, §4, §5

E. cloacae ECL7 = system: E. cloacae ECL7
Protocol: as §1, §2, §3, §4, §5

A. calcoaceticus AC2 = system: A. calcoaceticus AC2
Protocol: as §1, §2, §3, §4, §5

E. faecalis EFS1 = system: E. faecalis EFS1
Protocol: as §1, §2, §3, §4, §5

E. faecalis EFS8 = system: E. faecalis EFS8
Protocol: as §1, §2, §3, §4, §5

[1] = K. pneumoniae, organism # KP1, source ATCC, agarose dilution
[2] = P. aeruginosa, organism # PA4, source ATCC, agarose dilution
[3] = S. maltophilia, organism # SMA2, source ATCC, agarose dilution
[4] = S. aureus, organism # SA14, source Bayer, agarose dilution
[5] = S. marcescens, organism # SMS3, source ATCC, agarose dilution
[6] = S. aureus, organism # SA93, source Bayer, agarose dilution
[7] = E. coli, organism # ECO5, source ATCC, agarose dilution
[8] = S. epidermidis, organism # SE10, source Chow, agarose dilution
[9] = E. cloacae, organism # ECL7, source ATCC, agarose dilution
[10] = A. calcoaceticus, organism # AC2, source ATCC, agarose dilution
[11] = E. faecalis, organism # EFS1, source ATCC, agarose dilution
[12] = E. faecalis, organism # EFS8, source ATCC, agarose dilution

In the case of `CC[C@H](C)[C@H](N)C(=O)N[C@@H](CC(C)C)C(=O)N[C@@H](CCCNC(=N)N)C(=O)N[C@@H](Cc1c[nH]c2ccccc12)C(=O)N1CCC[C@H]1C(=O)N[C@@H](Cc1c[nH]c2ccccc12)C(=O)N[C@@H](Cc1c[nH]c2ccccc12)C(=O)N1CCC[C@H]1C(=O)N[C@@H](Cc1c[nH]c2ccccc12)C(=O)N[C@@H](CCCNC(=N)N)C(=O)N[C@@H](CCCNC(=N)N)C(=O)N[C@@H](CCCCN)C(=O)N[C@H]1CCOC1=O` [11B7HSL] (H-ILRWPWWPWRRK-{hSer(lactone)}; N-terminus assumed), the MIC (K. pneumoniae KP1; [1]) is reported as 8 µg/mL, the MIC (P. aeruginosa PA4; [2]) is reported as over 64 µg/mL and the MIC (S. maltophilia SMA2; [3]) is reported as 32 µg/mL. For the same molecule, the MIC (S. aureus SA14; [4]) was 1 µg/mL, the MIC (S. marcescens SMS3; [5]) was over 64 µg/mL and the MIC (S. aureus SA93; [6]) was 1 µg/mL. It also gave an MIC (E. coli ECO5; [7]) of 8 µg/mL, an MIC (S. epidermidis SE10; [8]) of 4 µg/mL and an MIC (E. cloacae ECL7; [9]) of over 64 µg/mL. The MIC (A. calcoaceticus AC2; [10]) was 4 µg/mL, the MIC (E. faecalis EFS1; [11]) was 1 µg/mL and the MIC (E. faecalis EFS8; [12]) was 16 µg/mL.
In the case of `CC[C@H](C)[C@H](N)C(=O)N[C@@H](CC(C)C)C(=O)N[C@@H](CCCNC(=N)N)C(=O)N[C@@H](Cc1c[nH]c2ccccc12)C(=O)N1CCC[C@H]1C(=O)N[C@@H](Cc1c[nH]c2ccccc12)C(=O)N[C@@H](Cc1c[nH]c2ccccc12)C(=O)N1CCC[C@H]1C(=O)N[C@@H](Cc1c[nH]c2ccccc12)C(=O)N[C@@H](CCCNC(=N)N)C(=O)N[C@@H](CCCNC(=N)N)C(=O)N[C@@H](CCCCN)C(=O)N[C@@H](CCO)C(=O)O` [11B7HS] (H-ILRWPWWPWRRK[hSer]-OH; N-terminus assumed), the MIC (K. pneumoniae KP1; KP1) is reported as 32 µg/mL, the MIC (P. aeruginosa PA4; PA4) is reported as over 64 µg/mL and the MIC (S. maltophilia SMA2; SMA2) is reported as 64 µg/mL. For the same molecule, the MIC (S. aureus SA14; SA14) was 2 µg/mL, the MIC (S. marcescens SMS3; SMS3) was over 64 µg/mL and the MIC (S. aureus SA93; SA93) was 1 µg/mL. It also gave an MIC (E. coli ECO5; ECO5) of 32 µg/mL, an MIC (S. epidermidis SE10; SE10) of 8 µg/mL and an MIC (E. cloacae ECL7; ECL7) of over 64 µg/mL. It also gave an MIC (A. calcoaceticus AC2) of 2 µg/mL, an MIC (E. faecalis EFS1; EFS1) of 2 µg/mL and an MIC (E. faecalis EFS8; EFS8) of 32 µg/mL.
ILRWPWWPWRRK-NH2 [11B7CN] showed an MIC (K. pneumoniae KP1; [1]) of 8 µg/mL, an MIC (P. aeruginosa PA4; [2]) of over 64 µg/mL and an MIC (S. maltophilia SMA2; [3]) of 32 µg/mL. For the same molecule, the MIC (S. aureus SA14; [4]) was 4 µg/mL, the MIC (S. marcescens SMS3; [5]) was over 64 µg/mL and the MIC (S. aureus SA93; [6]) was 1 µg/mL. For the same molecule, the MIC (E. coli ECO5; [7]) was 8 µg/mL, the MIC (S. epidermidis SE10; [8]) was 2 µg/mL and the MIC (E. cloacae ECL7; [9]) was over 64 µg/mL. For the same molecule, the MIC (A. calcoaceticus AC2; [10]) was 2 µg/mL, the MIC (E. faecalis EFS1; [11]) was 2 µg/mL and the MIC (E. faecalis EFS8; [12]) was 16 µg/mL.
